Test results taken from patent US20240381872A1, “SUBSTITUTED 2,3-DIHYDRO[1,3]THIAZOLO[4,5-B]PYRIDINES, SALTS THEREOF AND THEIR USE AS HERBICIDALLY ACTIVE SUBSTANCES” (BAYER AKTIENGESELLSCHAFT, priority 2021, published 2024).

Tests used:
Assay type in all cases: in vivo
Oryza sativa (ORYZA) [1] = assay: Pre-emergence effects on crop plants, section D (Table D3); details: visual grading after ca. 3 weeks
Text: (§1) Seeds of mono- and dicotyledonous weed plants and crop plants were sown, in plastic or organic planting pots, in sandy loam and covered with soil. The compounds according to the invention, formulated in the form of wettable powders (WP) or as emulsifiable concentrates (EC), were applied to the surface of the covering soil as aqueous suspension or emulsion, with the addition of 0.5% of an additive, at an application rate of 600 l of water/ha (converted).
(§2) Following treatment, the pots were placed in a greenhouse and kept under optimum growth conditions for the test plants. The visual grading of the damage to the test plants was carried out after ca. 3 weeks in comparison to untreated controls (herbicidal effect in percent (%): 100% effect=plants have died off, 0% effect=as control plants).
(§3) Tables D1 to D5 below show the effects of various compounds of the general formula (I) according to Table 1 on various crop plants and an application rate corresponding to 320 g/ha or below obtained by the experimental procedure mentioned above in Biological Examples, Section C.

Glycine max (GLXMA) [2] = assay: Pre-emergence effects on crop plants, section D (Table D4); details: visual grading after ca. 3 weeks
Text: as §1, §2, §3

Glycine max (GLXMA) [3] = assay: Post-emergence effects on crop plants, section F (Table F4)
Method in brief: (§4)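 After sowing in sandy loam and 2–3 weeks' greenhouse growth, single-leaf plants received foliar sprays (WP or EC, 0.5% additive, 600 l/ha water, ≤320 g/ha). Around 3 weeks on, herbicidal effect was estimated by eye, 0% meaning like controls and 100% meaning plants died.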

Zea mays (ZEAMX) [4] = assay: Post-emergence effects on crop plants, section F (Table F1)
Method in brief: as §4

Zea mays (ZEAMX) [5] = assay: Pre-emergence effects on crop plants, section D (Table D1); details: visual grading after ca. 3 weeks
Text: as §1, §2, §3

[6] = test system: Triticum aestivum (TRZAS); assay: Pre-emergence effects on crop plants, section D (Table D2); details: visual grading after ca. 3 weeks
Method in brief: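 Pre-emergence soil-surface spray, 320 g/ha or below, 600 l water/ha + 0.5% additive; WP/EC formulations; sandy loam; greenhouse; visual % damage vs untreated at ~3 wk.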

Oryza sativa (ORYZA) [7] = assay: Post-emergence effects on crop plants, section F (Table F3); details: Oryza sativa, 504 h, read-out: post-emergence activity against ORYZA in %
Text: (§5) Seeds of mono- and dicotyledonous weed plants and crop plants were sown, in plastic or organic planting pots, in sandy loam, covered with soil and grown in a greenhouse under controlled growth conditions. 2 to 3 weeks after sowing, the test plants were sprayed in the single-leaf stage. The compounds according to the invention, formulated in form of wettable powders (WP) or as emulsifiable concentrates (EC), were sprayed onto the green plant parts as aqueous suspension or emulsion, with the addition of 0.5% of an additive, at an application rate of 600 l of water/ha (converted). The test plants were placed in the greenhouse for ca. 3 weeks under optimum growth conditions, and then the effect of the preparations was assessed visually in comparison with untreated controls (herbicidal effect in percent (%): 100% effect=plants have died off, 0% effect=as control plants). Tables F1 to F4 below show the effects of selected compounds of the general formula (I) according to Table 1 on various crop plants and an application rate corresponding to 320 g/ha or below obtained by the experimental procedure mentioned above.

Brassica napus (BRSNW) [8] = assay: Pre-emergence effects on crop plants, section D (Table D5); details: visual grading after ca. 3 weeks
Text: as §1, §2, §3

Brassica napus (BRSNW) [9] = assay: Post-emergence effects on crop plants, section F (Table F5); details: application rate 80 g/ha; for crop plant damage (phytotoxicity) in % at 80 g/ha: Brassica napus, 504 h, read-out: post-emergence activity against BRSNW in %
Text: as §5

[10] = test system: Triticum aestivum (TRZAS); assay: Post-emergence effects on crop plants, section F (Table F2)
Method in brief: as §4

[11] = test system: Echinochloa crus-galli (ECHCG); assay: Herbicidal pre-emergence action, section C (Table C3); details: Echinochloa crus-galli, pre-emergence, 504 h; application rate 320 g/ha; visual grading after ca. 3 weeks vs untreated controls; read-out: pre-emergence activity against ECHCG in %
Text: (§6) Seeds of mono- and dicotyledonous weed plants and crop plants were sown, in plastic or organic planting pots, in sandy loam and covered with soil. The compounds according to the invention, formulated in the form of wettable powders (WP) or as emulsifiable concentrates (EC), were applied to the surface of the covering soil as aqueous suspension or emulsion, with the addition of 0.5% of an additive, at an application rate of 600 l of water/ha (converted). Following treatment, the pots were placed in a greenhouse and kept under optimum growth conditions for the test plants. The visual grading of the damage to the test plants was carried out after ca. 3 weeks in comparison to untreated controls (herbicidal effect in percent (%): 100% effect=plants have died off, 0% effect=as control plants).

[12] = test system: Amaranthus retroflexus (AMARE); assay: Herbicidal pre-emergence action, section C (Table C11); details: visual grading after ca. 3 weeks
Text: as §6

Veronica persica (VERPE) [13] = assay: Herbicidal post-emergence action, section E (Table E9); details: Veronica persica, 504 h, application rate 320 g/ha, visual assessment ca. 3 weeks after spraying, read-out: post-emergence activity against VERPE in %
Text: as §5, with “plants).” for “plants). Tables F1 to F4 below show the effects of selected compounds of the general formula (I) according to Table 1 on various crop plants and an application rate corresponding to 320 g/ha or below obtained by the experimental procedure mentioned above.”

[14] = test system: Alopecurus myosuroides (ALOMY); assay: Herbicidal pre-emergence action, section C (Table C2); details: Alopecurus myosuroides, pre-emergence, 504 h; application rate 320 g/ha; visual grading after ca. 3 weeks vs untreated controls; read-out: pre-emergence activity against ALOMY in %
Text: as §6

Setaria viridis (SETVI) = assay: Herbicidal pre-emergence action, section C (Table C8); details: Setaria viridis, pre-emergence, 504 h; application rate 320 g/ha; visual grading after ca. 3 weeks; read-out: pre-emergence activity against SETVI in %
Text: as §6

Kochia scoparia (KCHSC) [15] = assay: Herbicidal post-emergence action, section E (Table E11); details: visual assessment ca. 3 weeks after spraying
Text: as §5, with “plants).” for “plants). Tables F1 to F4 below show the effects of selected compounds of the general formula (I) according to Table 1 on various crop plants and an application rate corresponding to 320 g/ha or below obtained by the experimental procedure mentioned above.”

Kochia scoparia (KCHSC) [16] = assay: Herbicidal pre-emergence action, section C (Table C13); details: application rate 320 g/ha, visual grading after ca. 3 weeks
Text: as §6

Veronica persica (VERPE) [17] = assay: Herbicidal pre-emergence action, section C (Table C10); details: application rate 320 g/ha, visual grading after ca. 3 weeks
Text: as §6

[18] = test system: Polygonum convolvulus (POLCO); assay: Herbicidal pre-emergence action, section C (Table C7); details: application rate 320 g/ha; visual grading after ca. 3 weeks
Text: as §6

[19] = test system: Digitaria sanguinalis (DIGSA); assay: Herbicidal pre-emergence action, section C (Table C12); details: Digitaria sanguinalis, pre-emergence, 504 h; application rate 320 g/ha; visual grading after ca. 3 weeks; read-out: pre-emergence activity against DIGSA in %
Text: as §6

[20] = test system: Polygonum convolvulus (POLCO); assay: Herbicidal post-emergence action, section E (Table E7); details: Fallopia convolvulus, 504 h, application rate 320 g/ha, visual assessment ca. 3 weeks after spraying, read-out: post-emergence activity against POLCO in %
Text: as §5, with “plants).” for “plants). Tables F1 to F4 below show the effects of selected compounds of the general formula (I) according to Table 1 on various crop plants and an application rate corresponding to 320 g/ha or below obtained by the experimental procedure mentioned above.”

[21] = Glycine max, 504 h, application rate 320 g/ha, read-out: post-emergence activity against GLXMA in %
[22] = Zea mays, 504 h, application rate 320 g/ha, read-out: post-emergence activity against ZEAMX in %
[23] = Triticum aestivum, 504 h, application rate 320 g/ha, read-out: post-emergence activity against TRZAS in %
[24] = crop plant damage, application rate 320 g/ha

SMILES	percent crop plant damage at 320 g/ha (Glycine max (GLXMA) [3]; [21])	percent crop plant damage (phytotoxicity) on Zea mays, post-emergence at 320 g/ha (Zea mays (ZEAMX) [4]; [22])	pre-emergence activity against ZEAMX in % (crop plant damage) (Zea mays (ZEAMX) [5]; application rate 320 g/ha)	pre-emergence activity against TRZAS in % (crop plant damage) ([6]; application rate 320 g/ha)	pre-emergence activity against BRSNW in % (crop plant damage) (Brassica napus (BRSNW) [8]; application rate 320 g/ha)	crop plant damage (phytotoxicity) in % at 80 g/ha (Brassica napus (BRSNW) [9])	percent crop plant damage (wheat, post-emergence) at 320 g/ha [10, 23]	pest or weed control at 320 g/ha [11]	pest or weed control at 320 g/ha (Veronica persica (VERPE) [13])	pre-emergence activity against ZEAMX in % (crop plant damage) (Zea mays (ZEAMX) [5]; application rate 80 g/ha)	pest or weed control at 320 g/ha (Setaria viridis (SETVI))	pre-emergence activity against GLXMA in % (crop plant damage) (Glycine max (GLXMA) [2]; application rate 80 g/ha)	further results
O=C(c1ccccc1C(F)(F)F)N1CSc2cc(Br)c(-c3ccccc3Cl)nc21 [Example I-061, [6-bromo-5-(2-chlorophenyl)[1,3]thiazolo[4,5-b]pyridin-3(2H)-yl][2-(trifluoromethyl)-phenyl]methanone]	0%	20%	0%	0%	20%	0%	0%	–	–	–	–	–	pre-emergence activity against ORYZA in % (crop plant damage) (Oryza sativa (ORYZA) [1]; application rate 320 g/ha): 20%; pre-emergence activity against GLXMA in % (crop plant damage) (Glycine max (GLXMA) [2]; application rate 320 g/ha): 0%; percent crop plant damage at 320 g/ha (Oryza sativa (ORYZA) [7]; application rate 320 g/ha): 0%
O=C(C1CCCC1)N1CSc2cc(Br)c(-c3ccccc3F)nc21 [Example I-021, [6-bromo-5-(2-fluorophenyl)[1,3]thiazolo[4,5-b]pyridin-3(2H)-yl](cyclopentyl)methanone]	20%	–	–	0%	0%	10%	–	90%	80%	0%	80%	–	pre-emergence activity against ORYZA in % (crop plant damage) (Oryza sativa (ORYZA) [1]; application rate 80 g/ha): 10%; pest or weed control at 80 g/ha ([12]; Amaranthus retroflexus, pre-emergence, 504 h, application rate 80 g/ha, read-out: pre-emergence activity against AMARE in %): 100%; percent crop plant damage (phytotoxicity) on Zea mays, post-emergence at 80 g/ha (Zea mays (ZEAMX) [4]; Zea mays, 504 h, application rate 80 g/ha, read-out: post-emergence activity against ZEAMX in %): 10%; pest or weed control at 320 g/ha [14]: 80%; percent crop plant damage at 80 g/ha (Oryza sativa (ORYZA) [7]; application rate 80 g/ha): 10%; percent crop plant damage (wheat, post-emergence) at 80 g/ha ([10]; Triticum aestivum, 504 h, application rate 80 g/ha, read-out: post-emergence activity against TRZAS in %): 0%
COCCOCCOCC(=O)N1CSc2cc(Br)c(-c3cccc(F)c3F)nc21 [Example I-148]	–	–	–	0%	–	–	–	–	–	0%	–	0%	post-emergence activity against KCHSC in % (Kochia scoparia (KCHSC) [15]; application rate 320 g/ha): 80%; pre-emergence activity against AMARE in % ([12]; application rate 320 g/ha): 90%; pre-emergence activity against KCHSC in % (Kochia scoparia (KCHSC) [16]): 90%; post-emergence activity against GLXMA in % (Glycine max (GLXMA) [3]; [24]): 0%; post-emergence activity against ZEAMX in % (Zea mays (ZEAMX) [4]; [24]): 0%; pre-emergence activity against VERPE in % (Veronica persica (VERPE) [17]): 80%; pre-emergence activity against POLCO in % [18]: 80%; pre-emergence activity against BRSNW in % (crop plant damage) (Brassica napus (BRSNW) [8]; application rate 80 g/ha): 0%; post-emergence activity against BRSNW in % (Brassica napus (BRSNW) [9]; crop plant damage): 20%; post-emergence activity against TRZAS in % [10, 24]: 0%
CS(=O)(=O)N1C[S+]([O-])c2cc(Br)c(-c3ccccc3Cl)nc21 (stereo not shown) [Example I-133]	–	0%	20%	–	–	0%	0%	100%	80%	–	100%	20%	pest or weed control at 80 g/ha (Kochia scoparia (KCHSC) [15]; Bassia scoparia, 504 h, application rate 80 g/ha, read-out: post-emergence activity against KCHSC in %): 90%; pest or weed control at 320 g/ha (Kochia scoparia (KCHSC) [16]; Bassia scoparia, pre-emergence, 504 h, read-out: pre-emergence activity against KCHSC in %): 90%; pest or weed control at 320 g/ha [19]: 100%; percent crop plant damage at 80 g/ha (Glycine max (GLXMA) [3]; Glycine max, 504 h, application rate 80 g/ha, read-out: post-emergence activity against GLXMA in %): 0%; pest or weed control at 320 g/ha (Veronica persica (VERPE) [17]; Veronica persica, pre-emergence, 504 h, read-out: pre-emergence activity against VERPE in %): 80%; pest or weed control at 320 g/ha [20]: 80%; pre-emergence activity against TRZAS in % (crop plant damage) ([6]; application rate 80 g/ha): 0%
